Measurements as given in paper PMC11969438 (Inorganic Chemistry Frontiers, 2025).

Assays:
[1] = Hematological analysis after long-term treatment; conditions: 72 h after the fourth dose
Protocol: Mice were kept in groups of four per cage with sterilized paper-based environmental enrichment and food and water ad libitum, under pathogen-free conditions and a controlled environment with a 12 h light–dark cycle. Syngeneic models of colorectal carcinoma were generated via subcutaneous injection of CT-26 cells (0.5 × 10^6 cells in 50 μL of serum-free RPMI-1640 medium) into the right flank of 8–12 weeks old BALB/c mice. […] All animals were euthanized 24 h after the second dose. […] To determine the anticancer efficacy of the investigated compounds, treatment started 4 d after tumor implantation, when all tumors were measurable (>25 mm^3) using a twice-weekly treatment scheme for two weeks. Tumor size was determined daily via manual caliper measurement. The tumor volume was calculated as tumor volume = (length × diameter × diameter)/2. The overall condition, shape, and activity of the animals were assessed daily. Peripheral blood was collected from the submandibular vein in K3E K3EDTA tubes (Greiner Bio-One; Kremsmünster, AUT) on ice and was analyzed for hematological parameters (red blood cells (RBCs), hemoglobin (HGB), hematocrit (HCT), red cell distribution width (RDW), mean corpuscular volume (MCV), white blood cells (WBCs), lymphocytes (LYM), monocytes (MO), granulocytes (GRA), and platelets (PLT) using a Vet ABC hematology analyzer (scil Animal Care GmbH, Viernheim, Germany). EDTA-blood was centrifuged (900g, 10 min) twice and the supernatant (EDTA-plasma) was stored at −20 °C for subsequent cytokine/chemokine analysis using a Luminex detection platform. All animal experiments were performed with humane endpoints based on Federation of European Laboratory Animal Science Associations guidelines and according to the regulations of the Ethics Committee for the Care and Use of Laboratory Animals at the Medical University Vienna (proposal number BMBWF 2023–0.122.324). Animals were euthanized upon reaching a tumor volume of >1500 mm^3, a loss in body weight (>20%), tumor ulceration or other indications of deteriorated health. Animals were euthanized via cervical dislocation.

[2] = Cytokine and chemokine levels in plasma of treated animals, Luminex; format: in vivo, CT-26-bearing BALB/c mice; conditions: 24 h after second dose
Protocol: Next, the ProcartaPlex (96-well) multiplex assay panel was performed according to the manufacturer's recommendations. In brief, the capture bead mix was incubated with test samples (undiluted SN or mouse plasma) or standard mix overnight. The SN of three independent experiments or the plasma of four animals per treatment group was loaded onto the multiplex assay plate. Next, biotinylated detection antibody mix and Streptavidin-PE were added to the plate. Following the recommended washing steps, the samples were incubated in a reading buffer and were measured using a Luminex xMAP platform (Bio-Plex MAGPIX Multiplex Reader; Bio-Rad Laboratories) and analyzed using xPONENT software.
Tumor size was determined daily via manual caliper measurement. […] Animals were euthanized via cervical dislocation.

Compound	platelet counts (PLT) / thrombocytopenia [1]	absolute counts of white blood cells and subpopulations ([1]; i.v. twice a week for two weeks)	plasma IFN-β, IL-6 and M-CSF [2]
O=C1[O][Pt]2([NH][C@@H]3CCCC[C@H]3[NH]2)[O]C1=O [oxaliplatin, reference compound]	distinctly reduced platelet counts	massively lowered	–
COCCOCCOCCOCCNC(=O)[O][Pt-2]12([O]C(=O)CCC(=O)c3cc4cc(OC)c(OC)cc4s3)([NH2+][C@@H]3CCCC[C@H]3[NH2+]1)[O]C(=O)C(=O)[O]2 [Ox-MSA-PEG-Ca, (OC-6-34)-[(1R,2R)-1,2-cyclohexanediamino]-oxalato-[4-(5,6-dimethoxybenzo[b]thiophen-2-yl)-4-oxobutylcarboxylato]-[3,6,9,12-tetraoxatridecan-1-amino]platinum(IV)]	–	–	highest activations
